From patent publication US20250026743A1, “HETEROARYL-LINKED ANALOGS AS MGLU5 NEGATIVE ALLOSTERIC MODULATORS AND METHODS OF MAKING AND USING THE SAME” (Vanderbilt University, priority 2021, published 2025)
Where two headings read alike, the source gives them in different places.

Experiments:
cytochrome P450 1A2 = biological target: T1, cytochrome P450 1A2 (Homo sapiens, UniProt P05177); details: cited from earlier work
T1 sequence (P05177 1-516): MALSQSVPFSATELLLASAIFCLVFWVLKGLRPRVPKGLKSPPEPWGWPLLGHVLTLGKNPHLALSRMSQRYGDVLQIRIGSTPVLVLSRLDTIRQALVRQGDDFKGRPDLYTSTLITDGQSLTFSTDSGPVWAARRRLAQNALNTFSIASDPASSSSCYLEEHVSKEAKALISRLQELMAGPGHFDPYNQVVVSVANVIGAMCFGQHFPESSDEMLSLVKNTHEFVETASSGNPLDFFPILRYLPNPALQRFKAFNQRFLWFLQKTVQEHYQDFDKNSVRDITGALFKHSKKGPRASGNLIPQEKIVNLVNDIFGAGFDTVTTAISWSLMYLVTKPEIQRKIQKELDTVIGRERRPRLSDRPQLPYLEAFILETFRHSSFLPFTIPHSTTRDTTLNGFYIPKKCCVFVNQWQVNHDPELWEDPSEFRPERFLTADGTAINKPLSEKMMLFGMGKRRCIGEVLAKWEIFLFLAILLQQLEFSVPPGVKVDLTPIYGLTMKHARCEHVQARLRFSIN

[1] = intravenous administration, rhesus monkeys; cited from earlier work
hmGlu5 = biological target: T2, hmGlu5 (Homo sapiens, UniProt P41594); assay: mGlu5 Ca2+ flux assay in HEK 293A cells (negative allosteric modulation of glutamate EC80 response); format: cell-based; details: for remaining activity at 30 µM: HEK293-A, read-out: hmGlu5 NAM Emin (%); for IC50: HEK 293A cells, Ca2+ flux, glutamate EC80, >10,000 = decrease without plateau, read-out: hmGlu5 NAM IC50
T2 construct: expressed in transfected cells; host or cells: HEK 293A
How it was run: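 HEK 293A cells stably expressing rat or human mGlu5, Fluo-4 AM loaded; compound added 2.3 min before glutamate EC20, then EC80; Ca2+ fluorescence peak amplitudes (F/F0) normalised to glutamate max. IC50 from 4-parameter logistic fit, 10-point 1:3 curves, top 30 μM; partial NAMs plateau above 10% Glu Max.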

[2] = tested on: N-methyl-D-aspartate (NMDA) receptor; details: at higher concentrations; cited from earlier work
mGlu4 = mGlu4 (Homo sapiens, UniProt Q14833); details: cited from earlier work
mGlu4, sequence (Q14833 33-912): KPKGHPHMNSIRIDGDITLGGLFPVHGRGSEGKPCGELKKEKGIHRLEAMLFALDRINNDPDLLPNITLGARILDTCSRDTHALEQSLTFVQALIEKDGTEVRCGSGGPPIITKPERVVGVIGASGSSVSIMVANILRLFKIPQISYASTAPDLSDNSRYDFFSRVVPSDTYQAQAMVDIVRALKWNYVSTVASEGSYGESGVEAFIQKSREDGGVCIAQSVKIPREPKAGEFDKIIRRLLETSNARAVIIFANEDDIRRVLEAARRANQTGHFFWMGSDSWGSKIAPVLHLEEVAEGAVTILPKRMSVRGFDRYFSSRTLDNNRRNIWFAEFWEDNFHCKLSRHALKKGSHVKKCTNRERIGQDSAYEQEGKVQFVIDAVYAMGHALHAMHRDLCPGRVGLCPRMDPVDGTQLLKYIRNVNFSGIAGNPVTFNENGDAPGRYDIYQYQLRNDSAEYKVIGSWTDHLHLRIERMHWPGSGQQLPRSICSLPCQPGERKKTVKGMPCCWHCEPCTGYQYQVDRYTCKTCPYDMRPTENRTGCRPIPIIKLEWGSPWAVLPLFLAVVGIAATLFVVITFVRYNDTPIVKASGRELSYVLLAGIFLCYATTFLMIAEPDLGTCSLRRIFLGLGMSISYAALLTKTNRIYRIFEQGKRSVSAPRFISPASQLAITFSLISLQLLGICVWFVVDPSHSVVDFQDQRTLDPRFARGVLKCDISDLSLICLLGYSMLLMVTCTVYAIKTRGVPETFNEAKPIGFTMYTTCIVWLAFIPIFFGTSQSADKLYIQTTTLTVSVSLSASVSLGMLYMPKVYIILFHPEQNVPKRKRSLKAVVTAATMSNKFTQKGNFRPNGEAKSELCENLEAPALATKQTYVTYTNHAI

T2 sequence (P41594 21-1212): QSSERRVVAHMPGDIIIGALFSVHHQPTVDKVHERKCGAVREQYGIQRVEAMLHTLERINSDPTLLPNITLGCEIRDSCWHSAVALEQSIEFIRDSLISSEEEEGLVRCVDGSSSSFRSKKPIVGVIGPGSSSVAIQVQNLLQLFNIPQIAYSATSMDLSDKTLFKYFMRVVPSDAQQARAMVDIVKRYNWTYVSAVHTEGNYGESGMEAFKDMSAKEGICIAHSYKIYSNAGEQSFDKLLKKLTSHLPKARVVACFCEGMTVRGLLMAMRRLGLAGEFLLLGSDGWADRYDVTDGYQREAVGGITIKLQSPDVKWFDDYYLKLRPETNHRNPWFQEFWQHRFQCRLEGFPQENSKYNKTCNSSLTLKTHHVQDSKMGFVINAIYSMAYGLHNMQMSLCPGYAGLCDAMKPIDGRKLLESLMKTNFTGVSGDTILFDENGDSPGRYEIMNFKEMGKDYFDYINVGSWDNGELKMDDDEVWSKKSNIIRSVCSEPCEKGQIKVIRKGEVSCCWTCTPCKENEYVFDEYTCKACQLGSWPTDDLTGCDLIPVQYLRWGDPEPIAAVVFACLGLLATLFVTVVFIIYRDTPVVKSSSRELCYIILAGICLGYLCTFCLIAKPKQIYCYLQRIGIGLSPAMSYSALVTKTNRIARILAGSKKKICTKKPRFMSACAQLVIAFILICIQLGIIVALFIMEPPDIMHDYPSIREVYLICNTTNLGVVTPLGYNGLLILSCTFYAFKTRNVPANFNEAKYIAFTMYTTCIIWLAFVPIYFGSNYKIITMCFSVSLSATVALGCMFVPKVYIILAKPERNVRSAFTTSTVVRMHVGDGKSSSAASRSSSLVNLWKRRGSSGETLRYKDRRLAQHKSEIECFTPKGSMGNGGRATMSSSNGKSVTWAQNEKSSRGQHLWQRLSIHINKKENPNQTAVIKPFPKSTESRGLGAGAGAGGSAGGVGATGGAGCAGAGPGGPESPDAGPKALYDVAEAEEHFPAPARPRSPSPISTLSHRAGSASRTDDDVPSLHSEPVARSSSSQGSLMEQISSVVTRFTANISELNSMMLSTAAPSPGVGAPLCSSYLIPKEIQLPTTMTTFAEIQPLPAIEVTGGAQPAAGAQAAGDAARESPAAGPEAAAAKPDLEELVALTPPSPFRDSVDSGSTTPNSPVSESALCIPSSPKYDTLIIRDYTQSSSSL

Which “inhibition of cytochrome P450 1A2” value (cytochrome P450 1A2) does the source give for `Cc1nc(C#Cc2cccnc2)cs1` [MTEP, 3-[(2-methyl-1,3-thiazol-4-yl)ethynyl]pyridine] here?
Its value is “potent inhibitor”.

What about the clearance [1] of the same compound?
The clearance was “efficiently cleared”.

Which remaining activity at 30 µM (hmGlu5; % Glu max at 30 μM) does the source give for `Cc1ccncc1-c1cc(-c2noc(-c3ccc(F)cn3)n2)nc(C)c1F` [Compound 5, 3-(5′-fluoro-4,6′-dimethyl-[3,4′-bipyridin]-2′-yl)-5-(5-fluoropyridin-2-yl)-1,2,4-oxadiazole] here?
Its remaining activity at 30 µM is 3%.

What about the IC50 (hmGlu5) of the same compound?
The IC50 was 98 nM.

Which remaining activity at 30 µM (hmGlu5; % Glu max at 30 μM) does the source give for `Cc1nc(-c2noc(-c3ccc(F)cn3)n2)cc(-c2cc(Cl)cc(C#N)c2)c1F` [Compound 70, 3-chloro-5-(3-fluoro-6-(5-(5-fluoropyridin-2-yl)-1,2,4-oxadiazol-3-yl)-2-methylpyridin-4-yl)benzonitrile] here?
The remaining activity at 30 µM was 3%.

What about the IC50 (hmGlu5) of the same compound?
The IC50 was 206 nM.

For `Cc1nc(-c2noc(-c3ccc(F)cn3)n2)cc(-c2ccc(C3CC3)nc2)c1F` [Compound 31, 3-(6-cyclopropyl-5′-fluoro-6′-methyl-[3,4′-bipyridin]-2′-yl)-5-(5-fluoropyridin-2-yl)-1,2,4-oxadiazole], which remaining activity at 30 µM (hmGlu5; % Glu max at 30 μM) is on record?
The remaining activity at 30 µM was 20%.

And the IC50 (hmGlu5)?
The IC50 was 3090 nM.

For `Cc1ccc(-c2nnc(-c3cc(-c4cncc(F)c4)c(F)c(C)n3)o2)nc1` [Compound 57, 2-(5,5′-difluoro-6′-methyl-[3,4′-bipyridin]-2′-yl)-5-(5-methylpyridin-2-yl)-1,3,4-oxadiazole], which remaining activity at 30 µM (hmGlu5) is on record?
Its remaining activity at 30 µM is 4%.

What about the IC50 (hmGlu5) of the same compound?
The IC50 was 1080 nM.

With `Cc1nc(-c2noc(-c3ccncc3)n2)cc(-c2cncc(F)c2)c1F` [Compound 51, 3-(5,5′-difluoro-6′-methyl-[3,4′-bipyridin]-2′-yl)-5-(pyridin-4-yl)-1,2,4-oxadiazole] as the compound, how does the remaining activity at 30 µM (hmGlu5; % Glu max at 30 μM) read?
Its remaining activity at 30 µM is 12%.

What about the IC50 (hmGlu5) of the same compound?
The IC50 was 1070 nM.

What does the source list for `COc1c(-c2cncc(F)c2)cc(-c2n[nH]c(-c3cccc(F)c3)n2)nc1C` [Compound 101, 5-fluoro-6′-(5-(3-fluorophenyl)-1H-1,2,4-triazol-3-yl)-3′-methoxy-2′-methyl-3,4′-bipyridine]?
remaining activity at 30 µM (hmGlu5; % Glu max at 30 μM): 11%; IC50 (hmGlu5): 114 nM

What does the source list for `COc1c(-c2cncc(F)c2)cc(-c2nc(-c3ccc(F)cn3)no2)nc1C` [Compound 14, 5-(5-fluoro-5′-methoxy-6′-methyl-[3,4′-bipyridin]-2′-yl)-3-(5-fluoropyridin-2-yl)-1,2,4-oxadiazole]?
remaining activity at 30 µM (hmGlu5; % Glu max at 30 μM): 2%; IC50 (hmGlu5): 339 nM

Which “inhibition of NMDA receptor activity” value [2] does the source give for `Cc1cccc(C#Cc2ccccc2)n1` [MPEP, 2-methyl-6-(phenylethynyl) pyridine] here?
Its value is “directly inhibit”.

And the “modulation of mGlu4” value (mGlu4)?
Its value is “positive allosteric modulator”.

Which remaining activity at 30 µM (hmGlu5; % Glu max at 30 μM) does the source give for `Cc1ccncc1-c1cc(-c2noc(-c3cccc(F)c3)n2)nc(C)c1F` [Compound 20, 3-(5′-fluoro-4,6′-dimethyl-[3,4′-bipyridin]-2′-yl)-5-(3-fluorophenyl)-1,2,4-oxadiazole] here?
Its remaining activity at 30 µM is 2%.

What about the IC50 (hmGlu5) of the same compound?
Its IC50 is 49 nM.

With `Cc1ccncc1-c1cc(-c2noc(-c3ccc(F)cn3)n2)ncc1F` [Compound 1, 3-(5′-fluoro-4-methyl-[3,4′-bipyridin]-2′-yl)-5-(5-fluoropyridin-2-yl)-1,2,4-oxadiazole] as the compound, how does the remaining activity at 30 µM (hmGlu5; % Glu max at 30 μM) read?
The remaining activity at 30 µM was 3%.

And the IC50 (hmGlu5)?
Its IC50 is 192 nM.

With `Cc1nc(-c2noc(-c3cccnc3)n2)cc(-c2cncc(F)c2)c1F` [Compound 50, 3-(5,5′-difluoro-6′-methyl-[3,4′-bipyridin]-2′-yl)-5-(pyridin-3-yl)-1,2,4-oxadiazole] as the compound, how does the remaining activity at 30 µM (hmGlu5; % Glu max at 30 μM) read?
The remaining activity at 30 µM was 34%.

And the IC50 (hmGlu5)?
Its IC50 is 1560 nM.

What does the source list for `[2H]C([2H])([2H])Oc1c(-c2cncc(F)c2)cc(-c2nc(-c3ccc(F)cn3)no2)nc1C` [Compound 103, 5-(5-fluoro-5′-(methoxy-d3)-6′-methyl-[3,4′-bipyridin]-2′-yl)-3-(5-fluoropyridin-2-yl)-1,2,4-oxadiazole]?
remaining activity at 30 µM (hmGlu5; % Glu max at 30 μM): 5%; IC50 (hmGlu5): 624 nM

With `COc1ccnc(-c2nc(-c3cc(-c4cnccc4C)c(F)c(C)n3)no2)c1` [Compound 25, 3-(5′-fluoro-4,6′-dimethyl-[3,4′-bipyridin]-2′-yl)-5-(4-methoxypyridin-2-yl)-1,2,4-oxadiazole] as the compound, how does the remaining activity at 30 µM (hmGlu5; % Glu max at 30 μM) read?
The remaining activity at 30 µM was 12%.

What about the IC50 (hmGlu5) of the same compound?
Its IC50 is 3380 nM.

For `Fc1ccc(-c2nnc(-c3cc(-c4cncc(F)c4)cc(C(F)F)n3)o2)nc1` [Compound 84, 2-(6′-(difluoromethyl)-5-fluoro-[3,4′-bipyridin]-2′-yl)-5-(5-fluoropyridin-2-yl)-1,3,4-oxadiazole], which remaining activity at 30 µM (hmGlu5; % Glu max at 30 μM) is on record?
The remaining activity at 30 µM was 1%.

And the IC50 (hmGlu5)?
The IC50 was 359 nM.

With `Fc1ccc(-c2nc(-c3cc(-c4cncc(F)c4)cc(C4CCC4)n3)no2)nc1` [Compound 39, 3-(6′-cyclobutyl-5-fluoro-[3,4′-bipyridin]-2′-yl)-5-(5-fluoropyridin-2-yl)-1,2,4-oxadiazole] as the compound, how does the remaining activity at 30 µM (hmGlu5; % Glu max at 30 μM) read?
The remaining activity at 30 µM was 58%.

And the IC50 (hmGlu5)?
Its IC50 is 1910 nM.

What does the source list for `Cc1ccnc(-c2nc(-c3cc(-c4cnccc4C)c(F)c(C)n3)no2)c1` [Compound 88, 3-(5′-fluoro-4,6′-dimethyl-[3,4′-bipyridin]-2′-yl)-5-(4-methylpyridin-2-yl)-1,2,4-oxadiazole]?
remaining activity at 30 µM (hmGlu5; % Glu max at 30 μM): 3%; IC50 (hmGlu5): 245 nM

For `Cc1nc(-c2nnc(-c3ccc(F)cn3)o2)cc(-c2cnn(C(F)F)c2)c1F` [Compound 74, 2-(4-(1-(difluoromethyl)-1H-pyrazol-4-yl)-5-fluoro-6-methylpyridin-2-yl)-5-(5-fluoropyridin-2-yl)-1,3,4-oxadiazole], which remaining activity at 30 µM (hmGlu5; % Glu max at 30 μM) is on record?
The remaining activity at 30 µM was 2%.

What about the IC50 (hmGlu5) of the same compound?
The IC50 was 148 nM.

For `Cc1ccncc1-c1cc(-c2noc(-c3cccnn3)n2)nc(C)c1F` [Compound 92, 3-(5′-fluoro-4,6′-dimethyl-[3,4′-bipyridin]-2′-yl)-5-(pyridazin-3-yl)-1,2,4-oxadiazole], which remaining activity at 30 µM (hmGlu5; % Glu max at 30 μM) is on record?
The remaining activity at 30 µM was 74%.

What about the IC50 (hmGlu5) of the same compound?
The IC50 was greater than 10000 nM.

For `Cc1csc(-c2noc(-c3cc(-c4cncc(F)c4)c(F)c(C)n3)n2)n1` [Compound 104, 5-(5,5′-difluoro-6′-methyl-[3,4′-bipyridin]-2′-yl)-3-(4-methylthiazol-2-yl)-1,2,4-oxadiazole], which remaining activity at 30 µM (hmGlu5; % Glu max at 30 μM) is on record?
Its remaining activity at 30 µM is 1%.

What about the IC50 (hmGlu5) of the same compound?
Its IC50 is 122 nM.

For `Cc1nc(-c2noc(-c3ccc(F)cc3F)n2)cc(-c2cncc(F)c2)c1F` [Compound 49, 3-(5,5′-difluoro-6′-methyl-[3,4′-bipyridin]-2′-yl)-5-(2,4-difluorophenyl)-1,2,4-oxadiazole], which remaining activity at 30 µM (hmGlu5; % Glu max at 30 μM) is on record?
The remaining activity at 30 µM was 3%.

And the IC50 (hmGlu5)?
Its IC50 is 624 nM.

With `Cc1nc(-c2nc(-c3ccc(F)cc3)no2)cc(-c2cncc(F)c2)c1F` [Compound 46, 5-(5,5′-difluoro-6′-methyl-[3,4′-bipyridin]-2′-yl)-3-(4-fluorophenyl)-1,2,4-oxadiazole] as the compound, how does the remaining activity at 30 µM (hmGlu5; % Glu max at 30 μM) read?
The remaining activity at 30 µM was 3%.

What about the IC50 (hmGlu5) of the same compound?
The IC50 was 677 nM.

What does the source list for `COc1c(-c2cnccc2C)cc(-c2nc(-c3ccc(F)cn3)no2)nc1C` [Compound 13, 3-(5-fluoropyridin-2-yl)-5-(5′-methoxy-4,6′-dimethyl-[3,4′-bipyridin]-2′-yl)-1,2,4-oxadiazole]?
remaining activity at 30 µM (hmGlu5; % Glu max at 30 μM): 2%; IC50 (hmGlu5): 482 nM

With `Cc1ccncc1-c1cc(-c2nc(-c3cccc(F)c3)c[nH]2)nc(C)c1F` [Compound 63, 3′-fluoro-6′-(4-(3-fluorophenyl)-1H-imidazol-2-yl)-2′,4-dimethyl-3,4′-bipyridine] as the compound, how does the remaining activity at 30 µM (hmGlu5; % Glu max at 30 μM) read?
The remaining activity at 30 µM was 4%.

What about the IC50 (hmGlu5) of the same compound?
Its IC50 is 1090 nM.
